Assay results taken from ChEMBL document CHEMBL4602605, “Fluoroquinolones structural and medicinal developments (2013-2018): Where are we now?” (Bioorg Med Chem, 2019).
≈ marks a conversion by molar mass, not a printed value.

Legend:
Helicobacter pylori [1] = assay: Antimicrobial activity against Helicobacter pylori clinical isolate 2 after 7 days by two-fold agar dilution method; type: functional; settings: clinical isolate 2, 168 h
Helicobacter pylori [2] = assay: Antimicrobial activity against Helicobacter pylori clinical isolate 1 after 7 days by two-fold agar dilution method; type: functional; settings: clinical isolate 1, 168 h
Escherichia coli [3] = assay: Antimicrobial activity against Escherichia coli ATCC 25922 incubated for 18 to 24 hrs by disk diffusion method; type: functional
Staphylococcus aureus [4] = assay: Antimicrobial activity against Staphylococcus aureus ATCC 25923 incubated for 18 to 24 hrs by disk diffusion method; type: functional
Pseudomonas aeruginosa [5] = assay: Antimicrobial activity against Pseudomonas aeruginosa ATCC 27853 incubated for 18 to 24 hrs by disk diffusion method; type: functional
Bacillus subtilis = assay: Antimicrobial activity against Bacillus subtilis 10B incubated for 18 to 24 hrs by disk diffusion method; type: functional
Staphylococcus aureus [6] = assay: Antimicrobial activity against methicillin-susceptible Staphylococcus aureus ATCC 29213 incubated for 16 hrs by CLSI method; type: functional; settings: ATCC 29213, 16 h
Staphylococcus aureus [7] = assay: Antimicrobial activity against healthcare-acquired methicillin-resistant Staphylococcus aureus NRS70 incubated for 16 hrs by CLSI method; type: functional; settings: NRS70, 16 h
Aspergillus clavatus = assay: Antifungal activity against Aspergillus clavatus after overnight incubation by agar well diffusion method; type: functional
PC-3 = assay: Growth inhibition of human PC3 cells by MTT assay; type: functional, cell-based
Candida albicans = assay: Antifungal activity against Candida albicans after overnight incubation by agar well diffusion method; type: functional
Enterococcus faecalis = assay: Antimicrobial activity against Enterococcus faecalis ATCC 29212 incubated for 18 to 24 hrs by microbroth dilution method; type: functional
Pseudomonas aeruginosa [8] = assay: Antimicrobial activity against Pseudomonas aeruginosa ATCC 43288 incubated for 18 to 24 hrs by microbroth dilution method; type: functional
Bacillus cereus = assay: Antimicrobial activity against Bacillus cereus 709 Roma incubated for 18 to 24 hrs by microbroth dilution method; type: functional
[9] = tested on: Mycolicibacterium smegmatis; assay: Antimicrobial activity against Mycobacterium smegmatis ATCC 607 incubated for 48 to 72 hrs by microbroth dilution method; type: functional
Staphylococcus aureus [10] = assay: Antimicrobial activity against Staphylococcus aureus ATCC 25923 incubated for 18 to 24 hrs by microbroth dilution method; type: functional
Staphylococcus aureus [11] = assay: Antimicrobial activity against Staphylococcus aureus ATCC 6538 by agar dilution method; type: functional
Pseudomonas aeruginosa [12] = assay: Antimicrobial activity against Pseudomonas aeruginosa ATCC 9027 by agar well diffusion method; type: functional
Escherichia coli [13] = assay: Antimicrobial activity against Escherichia coli ATCC 8739 by agar dilution method; type: functional

## COc1ccc(Nc2c(F)cc3c(=O)c(C(=O)O)cn(C4CC4)c3c2N)cc1
Helicobacter pylori [1]
  MIC: 5 µg/mL (≈ 13 µM)
Helicobacter pylori [2]
  MIC: 2.5 µg/mL (≈ 6.52 µM)

## CCn1cc(C(=O)O)c(=O)c2cc(F)c(Nc3ncccn3)cc21
Escherichia coli [3]
  MIC: 510 µg/mL (≈ 1550 µM)
Staphylococcus aureus [4]
  MIC: 515 µg/mL (≈ 1570 µM)
Pseudomonas aeruginosa [5]
  MIC: > 500 µg/mL
Bacillus subtilis
  MIC: > 500 µg/mL

## COc1c(N2CCCC2)c(F)cc2c(=O)c(C(=O)Nc3nccs3)cn(C3CC3)c12
Staphylococcus aureus [6]
  MIC90: > 201 µg/mL
Staphylococcus aureus [7]
  MIC90: > 201 µg/mL

## Nc1c(Nc2ccccc2)c(F)cc2c(=O)c(C(=O)O)cn(C3CC3)c12
Helicobacter pylori [1]
  MIC: 1.3 µg/mL (≈ 3.68 µM)
Helicobacter pylori [2]
  MIC: 0.6 µg/mL (≈ 1.7 µM)

## CCn1cc(C(=O)O)c(=O)c2cc(F)c(NNc3n[nH]c(N)n3)c(F)c21
Escherichia coli [3]
  MIC: 390 µg/mL (≈ 1070 µM)
Staphylococcus aureus [4]
  MIC: 240 µg/mL (≈ 657 µM)
Pseudomonas aeruginosa [5]
  MIC: > 500 µg/mL
Bacillus subtilis
  MIC: > 500 µg/mL

## O=C(O)c1cn(C2CC2)c2c(cc(F)c3c2nnn3-c2ccc(Cl)cc2)c1=O
Helicobacter pylori [1]
  MIC: 2.5 µg/mL (≈ 6.27 µM)
Helicobacter pylori [2]
  MIC: 5 µg/mL (≈ 12.5 µM)

## CCn1cc(C(=O)O)c(=O)c2cc(F)c(Nn3c(=O)[nH]cc(F)c3=O)c(F)c21
Escherichia coli [3]
  MIC: 120 µg/mL (≈ 303 µM)
Staphylococcus aureus [4]
  MIC: 390 µg/mL (≈ 984 µM)
Pseudomonas aeruginosa [5]
  MIC: > 500 µg/mL
Bacillus subtilis
  MIC: > 500 µg/mL

## COc1c(N2CCN(C)CC2)c(F)cc2c(=O)c(C(=O)N/N=C\c3cc(Br)ccc3O)cn(C3CC3)c12
Aspergillus clavatus
  inhibition zone (IZ): 12 mm
PC-3
  IC50: 12 µg/mL (≈ 21 µM)

## COc1c(F)c(F)cc2c(=O)c(C(=O)N3CCSC3)cn(C3CC3)c12
Staphylococcus aureus [6]
  MIC90: > 201 µg/mL
Staphylococcus aureus [7]
  MIC90: > 201 µg/mL

## COc1c(N2CCN(C)CC2)c(F)cc2c(=O)c(C(=O)N/N=C\c3ccc([N+](=O)[O-])cc3)cn(C3CC3)c12
Aspergillus clavatus
  inhibition zone (IZ): 8 mm
Candida albicans
  inhibition zone (IZ): 10 mm
PC-3
  IC50: 15 µg/mL (≈ 28.7 µM)

## COc1ccc(-n2nnc3c4c(cc(F)c32)c(=O)c(C(=O)O)cn4C2CC2)cc1
Helicobacter pylori [1]
  MIC: 1.3 µg/mL (≈ 3.3 µM)
Helicobacter pylori [2]
  MIC: 2.5 µg/mL (≈ 6.34 µM)

## CCn1cc(C(=O)O)c(=O)c2cc(F)c(Nc3n[nH]c(N)n3)cc21
Escherichia coli [3]
  MIC: 150 µg/mL (≈ 451 µM)
Staphylococcus aureus [4]
  MIC: > 500 µg/mL
Pseudomonas aeruginosa [5]
  MIC: > 500 µg/mL
Bacillus subtilis
  MIC: > 500 µg/mL

## COc1c(N2CC3=CCCCC3C2)c(F)cc2c(=O)c(C(=O)N3CCSC3)cn(C3CC3)c12 (stereo not drawn)
Staphylococcus aureus [6]
  MIC90: 6.3 µg/mL (≈ 13.4 µM)
Staphylococcus aureus [7]
  MIC90: 6.3 µg/mL (≈ 13.4 µM)

## CCn1cc(C(=O)O)c(=O)c2cc(F)c(N3CCN(C(C)=O)CC3)cc21 [4-N-ACETYL-1-PIPERAZINYL-NORFLOXACIN]
Escherichia coli [3]
  MIC: 0.012 µg/mL (≈ 0.0332 µM)
Staphylococcus aureus [4]
  MIC: 10.7 µg/mL (≈ 29.7 µM)
Pseudomonas aeruginosa [5]
  MIC: > 500 µg/mL
Bacillus subtilis
  MIC: 0.805 µg/mL (≈ 2.23 µM)

## COc1c(N2CC3CCCCC3C2)c(F)cc2c(=O)c(C(=O)N3CCSC3)cn(C3CC3)c12 (stereo not drawn)
Staphylococcus aureus [6]
  MIC90: 0.79 µg/mL (≈ 1.68 µM)
Staphylococcus aureus [7]
  MIC90: 0.79 µg/mL (≈ 1.68 µM)

## COc1c(N2CCCCC2)c(F)cc2c(=O)c(C(=O)Nc3nccs3)cn(C3CC3)c12
Staphylococcus aureus [6]
  MIC90: > 201 µg/mL
Staphylococcus aureus [7]
  MIC90: > 201 µg/mL

## COc1ccc(OC)c(/C=N\NC(=O)c2cn(C3CC3)c3c(OC)c(N4CCN(C)CC4)c(F)cc3c2=O)c1
Aspergillus clavatus
  inhibition zone (IZ): 8 mm
Candida albicans
  inhibition zone (IZ): 10 mm
PC-3
  IC50: 3 µg/mL (≈ 5.58 µM)

## CCn1cc(C(=O)O)c(=O)c2cc(F)c(Cl)cc21
Escherichia coli [3]
  MIC: 0.355 µg/mL (≈ 1.32 µM)
Staphylococcus aureus [4]
  MIC: 0.535 µg/mL (≈ 1.98 µM)
Pseudomonas aeruginosa [5]
  MIC: 116 µg/mL (≈ 432 µM)
Bacillus subtilis
  MIC: 0.125 µg/mL (≈ 0.464 µM)

## CCn1cc(C(=O)O)c(=O)c2cc(F)c(NNc3ncccn3)c(F)c21
Escherichia coli [3]
  MIC: 120 µg/mL (≈ 332 µM)
Staphylococcus aureus [4]
  MIC: 150 µg/mL (≈ 415 µM)
Pseudomonas aeruginosa [5]
  MIC: > 500 µg/mL
Bacillus subtilis
  MIC: > 500 µg/mL

## COc1c(N2CCN(C)CC2)c(F)cc2c(=O)c(C(=O)N/N=C\c3cccc([N+](=O)[O-])c3)cn(C3CC3)c12
Aspergillus clavatus
  inhibition zone (IZ): 10 mm
Candida albicans
  inhibition zone (IZ): 12 mm

## CCn1cc(C(=O)O)c(=O)c2cc(F)c(Nn3c(=O)cc[nH]c3=O)c(F)c21
Escherichia coli [3]
  MIC: 120 µg/mL (≈ 317 µM)
Staphylococcus aureus [4]
  MIC: 310 µg/mL (≈ 819 µM)
Pseudomonas aeruginosa [5]
  MIC: > 500 µg/mL
Bacillus subtilis
  MIC: > 500 µg/mL

## CCn1cc(C(=O)O)c(=O)c2cc(F)c(F)cc21
Escherichia coli [3]
  MIC: 24.6 µg/mL (≈ 97.3 µM)
Staphylococcus aureus [4]
  MIC: 369 µg/mL (≈ 1460 µM)
Pseudomonas aeruginosa [5]
  MIC: 138 µg/mL (≈ 547 µM)
Bacillus subtilis
  MIC: 29.6 µg/mL (≈ 117 µM)

## COc1c(N2CC3CCCCC3C2)c(F)cc2c(=O)c(C(=O)Nc3nccs3)cn(C3CC3)c12 (stereo not drawn)
Staphylococcus aureus [6]
  MIC90: > 201 µg/mL
Staphylococcus aureus [7]
  MIC90: > 201 µg/mL

## Nc1c(Nc2ccc(F)cc2)c(F)cc2c(=O)c(C(=O)O)cn(C3CC3)c12
Helicobacter pylori [1]
  MIC: 5 µg/mL (≈ 13.5 µM)
Helicobacter pylori [2]
  MIC: 2.5 µg/mL (≈ 6.73 µM)

## Cc1ccc(-n2nnc3c4c(cc(F)c32)c(=O)c(C(=O)O)cn4C2CC2)cc1
Helicobacter pylori [1]
  MIC: 1.3 µg/mL (≈ 3.44 µM)
Helicobacter pylori [2]
  MIC: 5 µg/mL (≈ 13.2 µM)

## CCn1cc(C(=O)O)c(=O)c2cc(F)c(NNc3c[nH]c(=O)[nH]c3=O)c(F)c21
Escherichia coli [3]
  MIC: 170 µg/mL (≈ 432 µM)
Staphylococcus aureus [4]
  MIC: 195 µg/mL (≈ 496 µM)
Pseudomonas aeruginosa [5]
  MIC: > 500 µg/mL
Bacillus subtilis
  MIC: > 500 µg/mL

## Cc1ccc(Nc2c(F)cc3c(=O)c(C(=O)O)cn(C4CC4)c3c2N)cc1
Helicobacter pylori [1]
  MIC: 2.5 µg/mL (≈ 6.8 µM)
Helicobacter pylori [2]
  MIC: 5 µg/mL (≈ 13.6 µM)

## O=C(O)c1cn(C2CC2)c2c(cc(F)c3nn(CN(N4CCCC4)N4CCCC4)c(=O)n32)c1=O
Helicobacter pylori [1]
  MIC: 0.6 µg/mL (≈ 1.27 µM)
Helicobacter pylori [2]
  MIC: 2.5 µg/mL (≈ 5.3 µM)

## COc1c(N2CCN(C)CC2)c(F)cc2c(=O)c(C(=O)N/N=C\c3ccc(F)cc3)cn(C3CC3)c12
Aspergillus clavatus
  inhibition zone (IZ): 11 mm

## COc1c(N2CCN(C)CC2)c(F)cc2c(=O)c(C(=O)N/N=C\c3ccccc3)cn(C3CC3)c12
Aspergillus clavatus
  inhibition zone (IZ): 11 mm
PC-3
  IC50: 16.3 µg/mL (≈ 34.1 µM)

## COc1c(N2CCOCC2)c(F)cc2c(=O)c(C(=O)Nc3nccs3)cn(C3CC3)c12
Staphylococcus aureus [6]
  MIC90: > 201 µg/mL
Staphylococcus aureus [7]
  MIC90: > 201 µg/mL

## COc1c(N2CCN(C)CC2)c(F)cc2c(=O)c(C(=O)N/N=C\c3ccc(O)cc3)cn(C3CC3)c12
Aspergillus clavatus
  inhibition zone (IZ): 12 mm
Candida albicans
  inhibition zone (IZ): 9 mm
PC-3
  IC50: 14.4 µg/mL (≈ 29.2 µM)

## Nc1c(Nc2ccc(Cl)cc2)c(F)cc2c(=O)c(C(=O)O)cn(C3CC3)c12
Helicobacter pylori [1]
  MIC: 2.5 µg/mL (≈ 6.45 µM)
Helicobacter pylori [2]
  MIC: 5 µg/mL (≈ 12.9 µM)

## COc1c(N2CCNCC2)c(F)cc2c(=O)c(C(=O)N3CCSC3)cn(C3CC3)c12
Staphylococcus aureus [6]
  MIC90: 0.39 µg/mL (≈ 0.902 µM)
Staphylococcus aureus [7]
  MIC90: 0.62 µg/mL (≈ 1.43 µM)

## COc1c(N2CCN(C)CC2)c(F)cc2c(=O)c(C(=O)N/N=C\c3cccc(N(C)C)c3)cn(C3CC3)c12
Aspergillus clavatus
  inhibition zone (IZ): 10 mm
Candida albicans
  inhibition zone (IZ): 8 mm

## CCn1cc(C(=O)O)c(=O)c2cc(F)c(N3CCN(Cn4nc(CN5CCN(c6ccc([N+](=O)[O-])cc6)CC5)n(Cc5ccccc5)c4=S)CC3)cc21
Enterococcus faecalis
  MIC: 0.122 to 0.488 µg/mL (≈ 0.164 to 0.658 µM)
Pseudomonas aeruginosa [8]
  MIC: 0.06 to 0.48 µg/mL (≈ 0.0809 to 0.647 µM)
Bacillus cereus
  MIC: 0.12 to 0.48 µg/mL (≈ 0.162 to 0.647 µM)
[9]
  MIC: 0.244 µg/mL (≈ 0.329 µM)
Staphylococcus aureus [10]
  MIC: 0.12 to 0.24 µg/mL (≈ 0.162 to 0.324 µM)

## COc1cc(/C=N\NC(=O)c2cn(C3CC3)c3c(OC)c(N4CCN(C)CC4)c(F)cc3c2=O)ccc1O
Aspergillus clavatus
  inhibition zone (IZ): 12 mm
Candida albicans
  inhibition zone (IZ): 10 mm
PC-3
  IC50: 14.8 µg/mL (≈ 28.3 µM)

## CCn1cc(C(=O)O)c(=O)c2cc(F)c(N3CCCC(C)C3)cc21 (stereo not drawn)
Staphylococcus aureus [11]
  MIC: < 0.125 µg/mL
Pseudomonas aeruginosa [12]
  MIC: 1.28 µg/mL (≈ 3.85 µM)
Escherichia coli [13]
  MIC: 1.28 µg/mL (≈ 3.85 µM)
